Reference: patent US7742877B1, “Methods, apparatus and computer program products for formulating culture media” (Becton, Dickinson & Company, priority 1999, dated 2010)

How the values were obtained:
[1] = tested on: bacterial cells genetically engineered to produce a heterologous protein of interest; assay: Protein production by bacterial cells grown in culture medium containing a test peptide (QSAR example, exemplary data); type: cell-based; conditions: peptide included in culture medium of bacterial cells; exemplary (hypothetical) data
Source text: The present invention may be used to identify a peptide to include as a component of a culture medium. The culture medium may be used to culture bacterial cells genetically engineered to produce a heterologous protein of interest. Accordingly, it would be desirable to identify a peptide which when included in a culture medium will enhance protein production by bacterial cells grown in the culture medium (i.e., to satisfy a test requirement).
In this example, eight test peptides are selected from a tetrapeptide library: Asp-Lys-Ala-His (SEQ. ID. NO:23), Asp-Trp-Pro-Ala (SEQ. ID. NO:24), Glu-Ser-Met-His (SEQ. ID. NO:25), Gly-Val-Asn-Glu (SEQ. ID. NO:26), His-Glu-Asp-Val (SEQ. ID. NO:27), Glu-Thr-Gly-Ser (SEQ. ID. NO:28), His-Tyr-Gly-Val (SEQ. ID. NO:29, and Asp-Phe-Gly-Val (SEQ. ID. NO:30); Table 3). The test peptides may be selected from the library by any means known in the art. The values for three parameters (molecular weight, total charge, and mlogp, i.e., hydrophobicity) may be determined for each of the eight peptides. The indicia of the property, in this example a particular biological activity (i.e., protein production), may be determined for the eight peptides as well.

[2] = tested on: mammalian hybridoma cells producing and secreting antibodies; assay: Antibody production by hybridoma cells cultured in medium containing a test peptide (nearest neighbor example, model data); type: cell-based; conditions: for Biol. Act. (antibody production): training set peptide added to hybridoma culture medium, model data; for Observed Activity (antibody production): candidate peptides, (hypothetical) biological activities
Source text: One particular, and preferred, method of identifying compounds based on a distance function is nearest neighbor analysis. This method can be illustrated using the following simplified example with model data.
According to this illustrative example, the present invention can be used to identify a peptide as a culture medium component, e.g., for mammalian hybridoma cells producing and secreting antibodies. In particular, it is desirable to identify peptides, which when added to culture medium, will promote antibody production by hybridoma cells at a level greater than a test requirement. Four test peptides (Asp-Lys-Ala-His (SEQ. ID NO:23), Asp-Trp-Pro-Ala (SEQ. ID NO:24), Glu-Ser-Met-His (SEQ. ID NO:25), Gly-Val-Asn-Glu (SEQ. ID NO:26); i.e., a training set) may be selected from a peptide library as described above with respect to the QSAR example. Values to describe the various parameters of the peptides, for example, hydrophobicity (i.e., mlogp), molecular weight, and total charge may be calculated for each peptide (Table 5). Each peptide may be added to hybridoma culture medium and antibody production (i.e., biological activity) may be measured for the cells cultured in each culture medium (values shown in Table 5).
The peptides in the candidate set will then be assigned predicted indicia of the property based the closest peptide in the training set (Table 9).

Substance	Biol. Act. (protein production) [1]	Biol. Act. (antibody production) [2]	Observed Activity (antibody production) [2]
Asp-Lys-Ala-His (DKAH)	15.0	15.0	–
His-Tyr-Gly-Val (HYGV)	23.6	–	23.6
Glu-Thr-Gly-Ser (ETGS)	10.2	–	10.2
Gly-Val-Asn-Glu (GVNE)	14.4	14.4	–
Glu-Ser-Met-His (ESMH)	19.3	19.3	–
Asp-Phe-Gly-Val (DFGV)	22.0	–	22.0
His-Glu-Asp-Val (HEDV)	18.5	–	18.5
Asp-Trp-Pro-Ala (DWPA)	25.0	25.0	–
